Test results from patent US12252524B2, “GIP/GLP1 co-agonist compounds” (Eli Lilly and Company, priority 2018, dated 2025).
Numbered stars: 1 amine (or outer) side, 2 acyl side, 3 side chain; on linkers, the order of the positions; unused ones are H or OH. Square brackets hold non-standard residues; d marks the D form. Side chains are listed from the residue outwards. Peptide text beside a SMILES is read from it. * marks the point of attachment. C20 diacid = O=C(O)CCCCCCCCCCCCCCCCCCC(=O)*; C18 diacid = O=C(O)CCCCCCCCCCCCCCCCC(=O)*; αMePhe(2-F) = C[C@](N)(Cc1ccccc1F)C(=O)O; γGlu = O=C(O)[C@H](CCC(=O)[*:2])N[*:1]; αMeF = C[C@](N)(Cc1ccccc1)C(=O)O; 3Pal = N[C@@H](Cc1cccnc1)C(=O)O; 4Pal = N[C@@H](Cc1ccncc1)C(=O)O; αMeL = CC(C)C[C@](C)(N)C(=O)O; AEEA = NCCOCCOCC(=O)O; Aib = CC(C)(N)C(=O)O

Experiments:
human GLP-1R = human GLP-1R (Homo sapiens, UniProt P43220); experiment: [125I]-GLP-1 binding (SPA), human GLP-1 receptor; set-up: expressed in transfected cells; crude membranes; conditions: read-out: hGLP1R Ki, (nM) (SEM, n)
Chain of human GLP-1R (P43220 24-463): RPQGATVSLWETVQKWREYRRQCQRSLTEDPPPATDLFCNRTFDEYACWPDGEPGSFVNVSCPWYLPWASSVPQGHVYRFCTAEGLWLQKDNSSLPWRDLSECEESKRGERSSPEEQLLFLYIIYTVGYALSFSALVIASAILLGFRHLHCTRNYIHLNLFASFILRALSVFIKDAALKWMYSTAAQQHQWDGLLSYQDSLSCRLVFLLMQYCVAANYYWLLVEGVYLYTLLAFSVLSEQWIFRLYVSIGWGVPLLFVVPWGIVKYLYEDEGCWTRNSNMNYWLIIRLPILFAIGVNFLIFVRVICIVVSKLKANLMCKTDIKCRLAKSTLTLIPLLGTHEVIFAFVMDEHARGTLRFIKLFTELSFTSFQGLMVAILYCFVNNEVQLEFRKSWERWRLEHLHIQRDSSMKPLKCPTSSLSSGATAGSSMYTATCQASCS
Method: (§1) Two methods are used for the preparation of crude cell membranes.
(§2) Method 1: Frozen cell pellets are lysed on ice in hypotonic buffer containing 50 mM Tris HCl, pH 7.5, and Roche Complete™ Protease Inhibitors with EDTA. The cell suspension is disrupted using a glass Potter-Elvehjem homogenizer fitted with a Teflon® pestle for 25 strokes. The homogenate is centrifuged at 4° C. at 1100×g for 10 minutes. The supernatant is collected and stored on ice while the pellets are resuspended in homogenization buffer and rehomogenized as described above. The homogenate is centrifuged at 1100×g for 10 minutes. The second supernatant is combined with the first supernatant and centrifuged at 35000×g for 1 hour at 4° C. The resulting membrane pellet is resuspended in homogenization buffer containing protease inhibitors at approximately 1 to 3 mg/mL, quick frozen in liquid nitrogen and stored as aliquots in a−80° C. freezer until use.
(§3) Method 2: Frozen cell pellets are lysed on ice in hypotonic buffer containing 50 mM Tris HCl, pH 7.5, 1 mM MgCl2, Roche Complete™ EDTA-free Protease Inhibitors and 25 units/ml DNAse I (Invitrogen). The cell suspension is disrupted using a glass Potter-Elvehjem homogenizer fitted with a Teflon® pestle for 20 to 25 strokes. The homogenate is centrifuged at 4° C. at 1800×g for 15 minutes. The supernatant is collected and stored on ice while the pellets are resuspended in homogenization buffer (without DNAse I) and rehomogenized as described above. The homogenate is centrifuged at 1800×g for 15 minutes. The second supernatant is combined with the first supernatant and centrifuged an additional time at 1800×g for 15 minutes. The overall supernatant is then centrifuged at 25000×g for 30 minutes at 4° C. The resulting membrane pellet is resuspended in homogenization buffer (without DNAse I) containing protease inhibitors at approximately 1 to 3 mg/mL and stored as aliquots in a−80° C. freezer until use.
The binding buffer contains 25 mM HEPES, pH 7.4, 2.5 mM CaCl2, 1 mM MgCl2, 0.1% (w/v) bacitracin, 0.003% (w/v) TWEEN©-20, and Roche Complete™ Protease Inhibitors without EDTA.
(§4) Data are analyzed using four-parameter (curve maximum, curve minimum, IC50, Hill slope) nonlinear regression routines (Genedata Screener, version 12.0.4, Genedata AG, Basal, Switzerland). […] Values for Ki are reported as the geometric mean, with error expressed as the standard error of the mean (SEM) and n is equal to the number of independent replicates (determined in assays performed on different days). […] The Ki Ratio is a rapid indication of the apparent affinity of a peptide compared to the native control peptide. […] SEM is only calculated when n=2 or greater non-qualified results exist. Means are expressed as GeoMetric means with the standard error of the mean (SEM) and the number of replicates (n) indicated in parenthesis.

human Gcg receptor = biological target: T1, human Gcg receptor (Homo sapiens, UniProt P47871); experiment: [125I]-Glucagon binding (SPA), human Gcg receptor; conditions: read-out: hGLcgR Ki, nM (SEM, n)
T1 construct: expressed in transfected cells; crude membranes
T1 sequence (P47871 26-477): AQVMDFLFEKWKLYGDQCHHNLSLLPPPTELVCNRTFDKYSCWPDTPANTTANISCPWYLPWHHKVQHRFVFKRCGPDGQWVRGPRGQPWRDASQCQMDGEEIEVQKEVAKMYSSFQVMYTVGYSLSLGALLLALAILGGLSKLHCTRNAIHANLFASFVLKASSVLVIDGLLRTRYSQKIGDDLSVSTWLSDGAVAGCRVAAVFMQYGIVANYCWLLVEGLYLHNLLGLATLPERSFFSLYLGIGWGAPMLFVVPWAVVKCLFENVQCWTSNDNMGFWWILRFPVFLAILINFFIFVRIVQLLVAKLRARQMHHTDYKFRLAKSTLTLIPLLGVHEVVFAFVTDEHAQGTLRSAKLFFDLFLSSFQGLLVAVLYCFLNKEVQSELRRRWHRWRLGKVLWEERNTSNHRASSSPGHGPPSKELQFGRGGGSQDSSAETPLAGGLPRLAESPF
Method: as §1, §2, §3
The human Gcg receptor binding assays are performed using a Scintillation Proximity Assay (SPA) format with wheat germ agglutinin (WGA) beads (Perkin Elmer). The binding buffer contains 25 mM 4-(2-hydroxyethyl)-1-piperazineethanesulfonic acid (HEPES), pH 7.4, 2.5 mM CaCl2, 1 mM MgCl2, 0.1% (w/v) bacitracin (Research Products), 0.003% (w/v) Polyoxyethylenesorbitan monolaurate (TWEEN©-20), and Roche Complete™ Protease Inhibitors without EDTA. […] Plates are sealed and mixed on a plate shaker (setting 6) for 1 minute and read with a PerkinElmer Trilux MicroBeta© scintillation counter after 12 hours of incubation/settling time at room temperature.
as §4

human GIP receptor = biological target: T2, human GIP receptor (Homo sapiens, UniProt P48546); experiment: [125I]-GIP binding (SPA), human GIP receptor; conditions: read-out: hGIPR Ki, nM (SEM, n)
T2 construct: expressed in transfected cells; crude membranes
T2 sequence (P48546 22-466): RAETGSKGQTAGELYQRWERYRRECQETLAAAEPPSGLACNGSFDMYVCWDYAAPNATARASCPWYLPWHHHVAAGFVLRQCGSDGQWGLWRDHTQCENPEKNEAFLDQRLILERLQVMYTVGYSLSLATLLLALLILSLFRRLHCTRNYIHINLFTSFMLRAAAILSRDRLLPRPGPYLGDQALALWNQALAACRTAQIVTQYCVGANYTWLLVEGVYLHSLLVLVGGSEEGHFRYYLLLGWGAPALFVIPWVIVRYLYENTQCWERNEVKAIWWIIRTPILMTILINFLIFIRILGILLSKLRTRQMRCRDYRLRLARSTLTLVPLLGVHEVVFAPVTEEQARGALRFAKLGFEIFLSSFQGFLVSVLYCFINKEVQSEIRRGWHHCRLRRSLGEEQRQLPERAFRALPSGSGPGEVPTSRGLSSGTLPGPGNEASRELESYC
Method: as §1, §2, §3
The binding buffer contains 25 mM HEPES, pH 7.4, 2.5 mM CaCl2, 1 mM MgCl2, 0.1% (w/v) bacitracin, 0.003% (w/v) TWEEN©-20, and Roche Complete™ Protease Inhibitors without EDTA. Peptides and GIP are thawed and 3 fold serially diluted in 100% DMSO (10 point concentration response curves). […] Plates are sealed and mixed on a plate shaker (setting 6) for 1 minute and read with a PerkinElmer Trilux MicroBeta© scintillation counter after 2.5 to 12 hours of incubation/settling time at room temperature.
as §4

[1] = biological target: T3, gastric inhibitory peptide receptor (GIPR) (Homo sapiens, UniProt P48546); experiment: cAMP pharmacological functional assay in presence of casein, hGIPR; format: cell-based; conditions: HEK293 cells expressing hGIPR, 0.1% Casein, geometric mean; read-out: hGIPR cAMP Rel EC50 nM (SEM, n)
T3 sequence (P48546 22-466): T2 sequence (P48546 22-466)

[2] = biological target: human GLP-1 receptor (GLP-1R) (Homo sapiens, UniProt P43220); experiment: cAMP pharmacological functional assay in presence of casein, hGLP-1R; format: cell-based; conditions: HEK293 cells expressing hGLP-1R, 0.1% Casein, geometric mean; read-out: hGLP1R cAMP Rel EC50 nM (SEM, n)
Chain of human GLP-1 receptor (GLP-1R) (P43220 24-463): as the sequence (P43220 24-463) above

Structure (SMILES) | Ki (human GLP-1R) [nM] | Ki (human Gcg receptor) [nM] | Ki (human GIP receptor) [nM] | EC50 [1] [nM] | EC50 [2] [nM]
CC[C@H](C)[C@H](NC(=O)[C@H](CC(C)C)NC(=O)[C@H](Cc1ccc(O)cc1)NC(=O)[C@@H](CCC(=O)O)NC(=O)[C@@H](NC(=O)[C@H](Cc1ccccc1)NC(=O)[C@H](CCC(=O)O)NC(=O)C(C)(C)NC(=O)[C@H](CCC(N)=O)NC(=O)[C@H](C)NC(=O)[C@H](CCCCNC(=O)COCCOCCNC(=O)COCCOCCNC(=O)CC[C@H](NC(=O)CCCCCCCCCCCCCCCCCCC(=O)O)C(=O)O)NC(=O)[C@H](CCC(=O)O)NC(=O)[C@H](CC(=O)O)NC(=O)[C@H](CC(C)C)NC(=O)[C@](C)(CC(C)C)NC(=O)[C@@H](NC(=O)[C@H](CO)NC(=O)[C@H](Cc1cccnc1)NC(=O)[C@H](CC(=O)O)NC(=O)[C@H](CO)NC(=O)[C@@H](NC(=O)[C@](C)(Cc1ccccc1F)NC(=O)[C@@H](NC(=O)CNC(=O)[C@H](CCC(=O)O)NC(=O)C(C)(C)NC(=O)[C@@H](N)Cc1ccc(O)cc1)[C@@H](C)O)[C@@H](C)O)[C@@H](C)CC)[C@@H](C)CC)C(=O)N[C@@H](CCC(=O)O)C(=O)NCC(=O)NCC(=O)N1CCC[C@H]1C(=O)N[C@@H](CO)C(=O)N[C@@H](CO)C(=O)NCC(=O)N[C@@H](C)C(=O)N1CCC[C@H]1C(=O)N1CCC[C@H]1C(=O)N1CCC[C@H]1C(=O)N[C@@H](CO)C(N)=O [Example 181] (H-Y[Aib]EGT[αMePhe(2-F)]TSD[3Pal]SI[αMeL]LDEK([AEEA-AEEA-γGlu-C20 diacid])AQ[Aib]EFI[dE]YLIEGGPSSGAPPPS-NH2) | 7.28 | 413 | 0.145 |  | 
CC[C@H](C)[C@H](NC(=O)[C@H](CC(C)C)NC(=O)[C@H](Cc1ccc(O)cc1)NC(=O)[C@@H](CCC(=O)O)NC(=O)[C@@H](NC(=O)[C@H](Cc1ccccc1)NC(=O)[C@H](CCC(=O)O)NC(=O)C(C)(C)NC(=O)[C@H](CCC(N)=O)NC(=O)[C@H](C)NC(=O)[C@H](CCCCNC(=O)COCCOCCNC(=O)COCCOCCNC(=O)CC[C@H](NC(=O)CCCCCCCCCCCCCCCCC(=O)O)C(=O)O)NC(=O)[C@H](CCC(=O)O)NC(=O)[C@H](CC(=O)O)NC(=O)[C@H](CC(C)C)NC(=O)[C@](C)(CC(C)C)NC(=O)[C@@H](NC(=O)[C@H](CO)NC(=O)[C@H](Cc1ccncc1)NC(=O)[C@H](CC(=O)O)NC(=O)[C@H](CO)NC(=O)[C@@H](NC(=O)[C@](C)(Cc1ccccc1F)NC(=O)[C@@H](NC(=O)CNC(=O)[C@H](CCC(=O)O)NC(=O)C(C)(C)NC(=O)[C@@H](N)Cc1ccc(O)cc1)[C@@H](C)O)[C@@H](C)O)[C@@H](C)CC)[C@@H](C)CC)C(=O)N[C@@H](CCC(=O)O)C(=O)NCC(=O)NCC(=O)N1CCC[C@H]1C(=O)N[C@@H](CO)C(=O)N[C@@H](CO)C(=O)NCC(=O)N[C@@H](C)C(=O)N1CCC[C@H]1C(=O)N1CCC[C@H]1C(=O)N1CCC[C@H]1C(=O)N[C@@H](CO)C(N)=O [Example 204] (H-Y[Aib]EGT[αMePhe(2-F)]TSD[4Pal]SI[αMeL]LDEK([AEEA-AEEA-γGlu-C18 diacid])AQ[Aib]EFI[dE]YLIEGGPSSGAPPPS-NH2) |  | > 1150 | 0.0704 | 0.0424 | 0.0654
CC[C@H](C)[C@H](NC(=O)[C@H](CC(C)C)NC(=O)[C@H](Cc1ccc(O)cc1)NC(=O)[C@H](CCC(=O)O)NC(=O)[C@@H](NC(=O)[C@H](Cc1ccccc1)NC(=O)[C@@H](NC(=O)C(C)(C)NC(=O)[C@H](CCC(N)=O)NC(=O)[C@H](C)NC(=O)[C@H](CCCCNC(=O)COCCOCCNC(=O)COCCOCCNC(=O)CC[C@H](NC(=O)CCCCCCCCCCCCCCCCCCC(=O)O)C(=O)O)NC(=O)[C@H](CCCCN)NC(=O)[C@H](CC(=O)O)NC(=O)[C@H](CC(C)C)NC(=O)[C@](C)(CC(C)C)NC(=O)[C@@H](NC(=O)[C@H](CO)NC(=O)[C@H](Cc1ccc(O)cc1)NC(=O)[C@H](CC(=O)O)NC(=O)[C@H](CO)NC(=O)[C@@H](NC(=O)[C@](C)(Cc1ccccc1)NC(=O)[C@@H](NC(=O)CNC(=O)[C@H](CCC(=O)O)NC(=O)C(C)(C)NC(=O)[C@@H](N)Cc1ccc(O)cc1)[C@@H](C)O)[C@@H](C)O)[C@@H](C)CC)[C@@H](C)O)[C@@H](C)CC)C(=O)N[C@@H](CCC(=O)O)C(=O)NCC(=O)NCC(=O)N1CCC[C@H]1C(=O)N[C@@H](CO)C(=O)N[C@@H](CO)C(=O)NCC(=O)N[C@@H](C)C(=O)N1CCC[C@H]1C(=O)N1CCC[C@H]1C(=O)N1CCC[C@H]1C(=O)N[C@@H](CO)C(N)=O [Example 139] (H-Y[Aib]EGT[αMeF]TSDYSI[αMeL]LDKK([AEEA-AEEA-γGlu-C20 diacid])AQ[Aib]TFIEYLIEGGPSSGAPPPS-NH2) |  | 105 | 0.036 | 0.037 | 0.0417
CC[C@H](C)[C@H](NC(=O)[C@H](CC(C)C)NC(=O)[C@H](Cc1ccc(O)cc1)NC(=O)[C@H](CCC(=O)O)NC(=O)[C@@H](NC(=O)[C@H](Cc1ccccc1)NC(=O)[C@H](C)NC(=O)[C@H](CCCNC(=N)N)NC(=O)[C@H](CCC(N)=O)NC(=O)[C@H](C)NC(=O)[C@H](CCCCNC(=O)COCCOCCNC(=O)COCCOCCNC(=O)CC[C@H](NC(=O)CCCCCCCCCCCCCCCCCCC(=O)O)C(=O)O)NC(=O)[C@H](CCCCN)NC(=O)[C@H](CC(=O)O)NC(=O)[C@H](CC(C)C)NC(=O)[C@H](CC(C)C)NC(=O)[C@@H](NC(=O)[C@H](CO)NC(=O)[C@H](Cc1ccc(O)cc1)NC(=O)[C@H](CC(=O)O)NC(=O)[C@H](CO)NC(=O)[C@@H](NC(=O)[C@H](Cc1ccccc1)NC(=O)[C@@H](NC(=O)CNC(=O)[C@H](CCC(=O)O)NC(=O)C(C)(C)NC(=O)[C@@H](N)Cc1ccc(O)cc1)[C@@H](C)O)[C@@H](C)O)[C@@H](C)CC)[C@@H](C)CC)C(=O)N[C@@H](CCC(=O)O)C(=O)NCC(=O)NCC(=O)N1CCC[C@H]1C(=O)N[C@@H](CO)C(=O)N[C@@H](CO)C(=O)NCC(=O)N[C@@H](C)C(=O)N1CCC[C@H]1C(=O)N1CCC[C@H]1C(=O)N1CCC[C@H]1C(=O)N[C@@H](CO)C(N)=O [Example 257] (H-Y[Aib]EGTFTSDYSILLDKK([AEEA-AEEA-γGlu-C20 diacid])AQRAFIEYLIEGGPSSGAPPPS-NH2; N-terminus assumed) |  |  |  | 0.474 | 0.0779
